Legend:
Format in all cases: in vivo
[1] = test system: Human gastric cancer cell line NCI-N87; test: Antitumor study (1): NCI-N87 subcutaneous xenograft; settings: Day 63; NCI-N87 s.c. in female SCID mice; Compound A feed mix 0.3% Day 6 to Day 34; HER2-ADC (1) 2 mg/kg i.v. Day 10
Method: (§1) Measurement and calculation formula: In all studies, the major axis and minor axis of tumors were measured once a week or twice a week with an electronic digital caliper, and the estimated tumor volume (mm^3) was calculated. The calculation formula is as shown below.
(§2) Tumor growth inhibition (TGI) was calculated in accordance with the following calculation formula.
(§3) [formula] • T: Average estimated tumor volume of mice of test substance administration group • C: Average estimated tumor volume of mice of control group
(§4) The HER2-ADC (1) was diluted with ABS buffer (10 mM acetate buffer [pH 5.5], 5% sorbitol), and intravenously administered in a fluid volume of 10 mL/kg to the tail vein. The Compound A was orally administered by a feed mix containing 0.3% of Compound A.
(§5) These methods are common to Examples 5 to 8, and Examples 11 to 16. In Example 12 to Example 16, TROP2-ADC (1), HER3-ADC (1), CD37-ADC (1), or B7-H3-ADC (1) was used in the evaluation. Moreover, the Compound A was orally administered by a feed mix containing 0.25% of Compound A in Example 12 to Example 16.
Human gastric cancer cell line NCI-N87, which was purchased from ATCC (American Type Culture Collection), was suspended into DPBS (Dulbecco's phosphate-buffered saline) and subcutaneously transplanted at 1×10^7 cells into the right side of each female SCID (Severe Combined Immunodeficient) mouse (CLEA Japan, Inc.) (Day 0). […]

[2] = test system: Human breast cancer cell line JIMT-1; test: Antitumor study (2): JIMT-1 subcutaneous xenograft, HER2-ADC (1); settings: Day 52; JIMT-1 s.c. in female SCID mice; Compound A feed mix 0.3% Day 14 to Day 42; HER2-ADC (1) 10 mg/kg i.v. Day 18
Method: as §1, §2, §3, §4, §5
Human breast cancer cell line JIMT-1, which was purchased from DSMZ (Deutsche Sammlung von Mikroorganismen und Zellkulturen GmbH), was suspended into DPBS and subcutaneously transplanted at 5×10^6 cells into the right side of each female SCID mouse (CLEA Japan, Inc.) (Day 0). […]

[3] = test system: Human breast cancer cell line MDA-MB-453; test: Antitumor study (3): MDA-MB-453 subcutaneous xenograft; settings: Day 74; MDA-MB-453 s.c. in female SCID mice; Compound A feed mix 0.3% Day 18 to Day 46; HER2-ADC (1) 1 mg/kg i.v. Day 22
Method: as §1, §2, §3, §4, §5
Human breast cancer cell line MDA-MB-453, which was purchased from ATCC, was suspended into 50% Matrigel matrix and subcutaneously transplanted at 1×10^7 cells into the right side of each female SCID mouse (CLEA Japan, Inc.) (Day 0). Eighteen days later, the mice were divided into groups based on estimated tumor volumes. […]

[4] = test system: Human breast cancer cell line MX-1; test: Antitumor study (4): MX-1 subcutaneous xenograft; settings: Day 51; MX-1 s.c. in female SCID mice; Compound A feed mix 0.3% Day 13 to Day 41; HER2-ADC (1) 3 mg/kg i.v. Day 17
Method: as §1, §2, §3, §4, §5
Human breast cancer cell line MX-1, which was purchased from CLS (Cell Lines Service), was suspended into 50% Matrigel matrix and subcutaneously transplanted at 5×10^6 cells into the right side of each female SCID mouse (CLEA Japan, Inc.) (Day 0). […]

[5] = test system: Human breast cancer cell line ZR-75-1; test: Antitumor study (5): ZR-75-1 subcutaneous xenograft; settings: Day 49; ZR-75-1 s.c. in female NSG mice (estradiol cypionate weekly); Compound A feed mix 0.3% Day 14 to Day 42; HER2-ADC (1) 5 mg/kg i.v. Day 14
Method: as §1, §2, §3, §4
as §5, with “Example 16. […]” for “Example 16.”

[6] = test system: Human non-small lung cancer cell line Calu-3; test: Antitumor study (6): Calu-3 subcutaneous xenograft; settings: Day 35; Calu-3 s.c. in female SCID mice; Compound A feed mix 0.3% Day 14 to Day 42; HER2-ADC (1) 1 mg/kg i.v. Day 14
Method: as §1, §2, §3, §4, §5
Human non-small lung cancer cell line Calu-3, which was purchased from ATCC (American Type Culture Collection), was suspended into Matrigel matrix and subcutaneously transplanted at 3×10^6 cells into the right side of each female SCID mouse (The Jackson Laboratory Japan, Inc.) (Day 0). […]

[7] = test system: Human non-small lung cancer cell line NCI-H358; test: Antitumor study (7): NCI-H358 subcutaneous xenograft; settings: Day 115; NCI-H358 s.c. in female SCID mice; Compound A feed mix 0.25% Day 24 to Day 66; TROP2-ADC (1) 10 mg/kg i.v. Day 24 and Day 45
Method: as §1, §2, §3, §4, §5
Human non-small lung cancer cell line NCI-H358, which was purchased from ATCC (American Type Culture Collection), was suspended into 50% Matrigel matrix and subcutaneously transplanted at 3×10^6 cells into the right side of each female SCID mouse (CLEA Japan, Inc.) (Day 0). […]

[8] = test system: Human breast cancer cell line JIMT-1; test: Antitumor study (8): JIMT-1 subcutaneous xenograft, HER3-ADC (1); settings: Day 46; JIMT-1 s.c. in female SCID mice; Compound A feed mix 0.25% Day 11 to Day 39; HER3-ADC (1) 10 mg/kg i.v. Day 11
Method: as §1, §2, §3, §4, §5
Human breast cancer cell line JIMT-1, which was purchased from DSMZ (Deutsche Sammlung von Mikroorganismen und Zellkulturen GmbH), was suspended into saline and subcutaneously transplanted at 5×10^6 cells into the right side of each female SCID mouse (CLEA Japan, Inc.) (Day 0). […]

[9] = test system: Human diffuse large B-cell lymphoma cell line WSU-DLCL2; test: Antitumor study (9): WSU-DLCL2 subcutaneous xenograft; settings: Day 44; WSU-DLCL2 s.c. in female SCID mice; Compound A feed mix 0.25% Day 16 to Day 44; CD37-ADC (1) 1 mg/kg i.v. Day 16
Method: as §1, §2, §3, §4, §5
Human diffuse large B-cell lymphoma cell line WSU-DLCL2, which was purchased from DSMZ (Deutsche Sammlung von Mikroorganismen und Zellkulturen GmbH), was suspended into DPBS and subcutaneously transplanted at 1×10^7 cells into the right side of each female SCID mouse (CLEA Japan, Inc.) (Day 0). […]

[10] = test system: Human neuroendocrine prostate cancer cell line NCI-H660; test: Antitumor study (10): NCI-H660 subcutaneous xenograft; settings: Day 58; NCI-H660 s.c. in castrated male SCID mice; Compound A feed mix 0.25% Day 29 to Day 58; B7-H3-ADC (1) 0.3 mg/kg i.v. Day 29 and Day 43
Method: as §1, §2, §3, §4, §5
Human neuroendocrine prostate cancer cell line NCI-H660, which was purchased from ATCC (American Type Culture Collection), was suspended into 50% Matrigel matrix and subcutaneously transplanted at 2×10^6 cells into the right side of each castrated male SCID mouse (CLEA Japan, Inc.) (Day 0). […]

`Cc1cc(C)c(CNC(=O)c2cc(Cl)c3c(c2C)O[C@@](C)([C@H]2CC[C@H](N(C)C)CC2)O3)c(=O)[nH]1` [Compound A, (2R)-7-chloro-2-[trans-4-(dimethylamino)cyclohexyl]-N-[(4,6-dimethyl-2-oxo-1,2-dihydropyridin-3-yl)methyl]-2,4-dimethyl-1,3-benzodioxole-5-carboxamide p-toluene sulfonate] was tested, and the “Tumor growth inhibition (TGI)” value [1] was 38%, the “Tumor growth inhibition (TGI)” value [2] was 19% and the “Tumor growth inhibition (TGI)” value [3] was 41%. The “Tumor growth inhibition (TGI)” value [4] was 9%, the “Tumor growth inhibition (TGI)” value [5] was 53% and the “Tumor growth inhibition (TGI)” value [6] was 20%. For the same compound, the “Tumor growth inhibition (TGI)” value [7] was 20%, the “Tumor growth inhibition (TGI)” value [8] was 41% and the “Tumor growth inhibition (TGI)” value [9] was 31%. The “Tumor growth inhibition (TGI)” value [10] was 80%.
